# Assay results reported in US20140255392A1 (BAYER INTELLECTUAL PROPERTY GMBH, priority 2011, published 2014).
# pIC50: −log10 of the molar value.
# Biological target: T1, human kinase Mps-1 (Homo sapiens, UniProt P33981)
# T1 construct: N-terminally GST-tagged human full length recombinant Mps-1 kinase; GST (N); purchased Invitrogen, Karslruhe, Germany PV4071
# T1 sequence (P33981 1-857): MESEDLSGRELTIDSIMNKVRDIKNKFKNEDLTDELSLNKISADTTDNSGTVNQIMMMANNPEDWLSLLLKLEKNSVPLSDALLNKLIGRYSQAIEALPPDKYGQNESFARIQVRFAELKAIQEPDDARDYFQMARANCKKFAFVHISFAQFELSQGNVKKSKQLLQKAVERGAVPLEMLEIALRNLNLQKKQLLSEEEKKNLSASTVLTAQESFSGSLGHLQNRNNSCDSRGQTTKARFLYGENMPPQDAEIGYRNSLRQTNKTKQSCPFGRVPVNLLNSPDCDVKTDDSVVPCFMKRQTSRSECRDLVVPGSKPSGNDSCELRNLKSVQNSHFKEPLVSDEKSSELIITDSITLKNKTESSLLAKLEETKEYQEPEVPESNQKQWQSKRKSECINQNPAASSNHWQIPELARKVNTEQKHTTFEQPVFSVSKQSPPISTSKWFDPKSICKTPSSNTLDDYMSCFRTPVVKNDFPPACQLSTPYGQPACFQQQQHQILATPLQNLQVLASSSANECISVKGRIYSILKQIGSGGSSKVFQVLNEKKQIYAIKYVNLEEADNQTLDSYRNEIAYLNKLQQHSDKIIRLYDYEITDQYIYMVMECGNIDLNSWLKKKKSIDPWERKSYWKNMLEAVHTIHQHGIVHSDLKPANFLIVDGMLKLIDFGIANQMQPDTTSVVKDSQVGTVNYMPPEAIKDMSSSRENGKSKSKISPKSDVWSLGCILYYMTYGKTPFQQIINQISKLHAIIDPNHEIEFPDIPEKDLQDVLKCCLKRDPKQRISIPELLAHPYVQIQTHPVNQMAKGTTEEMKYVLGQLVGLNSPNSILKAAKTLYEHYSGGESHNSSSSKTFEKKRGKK
# Experiment: Mps-1 kinase assay (TR-FRET)
# Type: biochemical
# Settings: N-terminally GST-tagged human full length recombinant Mps-1; 10 μM ATP; 1 μM peptide substrate; 60 min at 22° C.
# Summary of the method: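 Compounds were tested against recombinant full-length Mps-1 bearing an N-terminal GST tag, about 1 nM final, with a biotinylated amide-capped peptide as substrate. Detection reagents were then bound for 1 h at 22° C and the product read by TR-FRET.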
row,pIC50,Compound
1,9.10,"Cc1cc(-c2cnc3c(NCCC(F)(F)F)cc(-c4ccc(C(=O)N[C@H]5C[C@@H]5F)c(C)c4)cn23)ccc1C(=O)NC1CC1 (relative stereo) [Example 152, 4-{3-[4-(cyclopropylcarbamoyl)-3-methylphenyl]-8-[(3,3,3-trifluoropropyl)amino]imidazo[1,2-a]pyridin-6-yl}-N-[rel-(1S,2S)-2-fluorocyclopropyl]-2-methylbenzamide]"
2,6.97,"C#Cc1cc(NCCC(F)(F)F)c2ncc(-c3ccc(C(=O)NC4(C)CC4)c(C)c3)n2c1 [Example 17, 4-{6-ethynyl-8-[(3,3,3-trifluoropropyl)amino]imidazo[1,2-a]pyridin-3-yl}-2-methyl-N-(1-methylcyclopropyl)benzamide]"
3,6.61,"Cc1cc(-c2cnc3c(NCCC(F)(F)F)cc(Oc4ccc(OC(F)(F)F)c(F)c4)cn23)ccc1C(=O)NC1(C#N)CC1 [Example 84, N-(1-cyanocyclopropyl)-4-{6-[3-fluoro-4-(trifluoromethoxy)phencow]-8-[(3,3,3-trifluoropropyl)amino]imidazo[1,2-a]pyridin-3-yl}-2-methylbenzamide]"
4,8.07,"Cc1cc(-c2cnc3c(NCCC(F)(F)F)cc(Oc4ccc(OC(F)(F)F)cc4)cn23)ccc1C(=O)NC1CC1 [Example 64, N-cyclopropyl-2-methyl-4-{6-[4-(trifluoromethoxy)phenoxy]-8-[(3,3,3-trifluoropropyl)amino]imidazo[1,2-a]pyridin-3-yl}benzamide]"
5,7.08,Cc1cc(-c2cnc3c(NCCC(F)(F)F)cc(S(C)(=O)=O)cn23)ccc1C(=O)NC1CC1 [Example 5-1]
6,6.91,"CCNC(=O)c1ccc(-c2cnc3c(NCCC(F)(F)F)cc(CC)cn23)cc1C [Example 101, N-ethyl-4-{6-ethyl-8-[(3,3,3-trifluoropropyl)amino]imidazo[1,2-a]pyridin-3-yl}-2-methylbenzamide]"
7,8.51,"Cc1cc(-c2cnc3c(NCCC(F)(F)F)cc(Oc4cccc(Cl)c4)cn23)ccc1C(=O)N[C@@H]1C[C@H]1F (relative stereo) [Example 39 (rac.-A), 4-{6-(3-chlorophenoxy)-8-[(3,3,3-trifluoropropyl)amino]imidazo[1,2-a]pyridin-3-yl}-N-[rel-(1R,2R)-2-fluorocyclopropyl]-2-methylbenzamide]"
8,8.54,"CCNC(=O)c1ccc(-c2cnc3c(NCCC(F)(F)F)cc(Oc4cccc(F)c4)cn23)cc1C [Example 10, N-ethyl-4-{6-(3-fluorophenoxy)-8-[(3,3,3-trifluoropropyl)amino]imidazo[1,2-a]pyridin-3-yl}-2-methylbenzamide]"
9,7.39,"CNC(=O)c1ccc(-c2cnc3c(NCCC(F)(F)F)cc(C#CCO)cn23)cc1C [Example 20, 4-{6-(3-hydroxyprop-1-yn-1-yl)-8-[(3,3,3-trifluoropropyl)amino]imidazo[1,2-a]pyridin-3-yl}-N,2-dimethylbenzamide]"
10,8.96,"Cc1cc(-c2cnc3c(NCCC(F)(F)F)cc(-c4ccccc4O)cn23)ccc1C(=O)NC1CC1 [Example 132, N-cyclopropyl-4-{6-(2-hydroxyphenyl)-8-[(3,3,3-trifluoropropyl)amino]imidazo[1,2-a]pyridin-3-yl}-2-methylbenzamide]"
11,8.66,"Cc1cc(-c2cnc3c(NCCC(F)(F)F)cc(Oc4cccc(O)c4)cn23)ccc1C(=O)NC1(C)CC1 [Example 137, 4-{6-(3-Hydroxyphenoxy)-8-[(3,3,3-trifluoropropyl)amino]imidazo[1,2-a]pyridin-3-yl}-2-methyl-N-(1-methylcyclopropyl)benzamide]"
12,9.05,"CNC(=O)c1ccc(-c2cnc3c(NCCC(F)(F)F)cc(Oc4ccc(O)c(F)c4)cn23)cc1C [Example 130, 4-{6-(3-Fluoro-4-hydroxyphenoxy)-8-[(3,3,3-trifluoropropyl)amino]imidazo[1,2-a]pyridin-3-yl}-N,2-dimethylbenzamide]"
13,9.15,"Cc1cc(-c2cnc3c(NCCC(F)(F)F)cc(Oc4cccc(F)c4)cn23)ccc1C(=O)NC1CC1F (single isomer, unassigned) [Example 12 (ent.-A or A), N-{[(1R,2R) or (1S,2S)]-2-fluorocyclopropyl}-4-{6-(3-fluorophenoxy)-8-[(3,3,3-trifluoropropyl)amino]imidazo[1,2-a]pyridin-3-yl}-2-methylbenzamide]"
14,7.52,"CNC(=O)c1ccc(-c2cnc3c(NCCC(F)(F)F)cc(Oc4cccc(OC(F)(F)F)c4)cn23)cc1C [Example 78, N,2-dimethyl-4-{6-[3-(trifluoromethoxy)phenoxy]-8-[(3,3,3-trifluoropropyl)amino]imidazo[1,2-a]pyridin-3-yl}benzamide]"
15,6.81,CCc1cc(NCCC(F)(F)F)c2ncc(-c3ccc(C(=O)NC4(C#N)CC4)c(C)c3)n2c1 [Example 103]
16,7.69,"Cc1cc(-c2cnc3c(NCCC(F)(F)F)cc(-c4ccncc4)cn23)ccc1C(=O)NC1(C#N)CC1 [Example 91, N-(1-cyanocyclopropyl)-2-methyl-4-{6-(pyridin-4-yl)-8-[(3,3,3-trifluoropropyl)amino]imidazo[1,2-a]pyridin-3-yl}benzamide]"
17,7.23,"C/C=C/c1cc(NCCC(F)(F)F)c2ncc(-c3ccc(C(=O)NC4(C#N)CC4)c(C)c3)n2c1 [Example 115, N-(1-cyanocyclopropyl)-2-methyl-4-{6-[(1E)-prop-1-en-1-yl]-8-[(3,3,3-trifluoropropyl)amino]imidazo[1,2-a]pyridin-3-yl}benzamide]"
18,9.22,"Cc1cc(F)cc(Sc2cc(NCCC(F)(F)F)c3ncc(-c4ccc(C(=O)NC5CC5)c(C)c4)n3c2)c1 [Example 3-1, N-cyclopropyl-4-{6-[(3-fluoro-5-methylphenyl)sulfanyl]-8-[(3,3,3-trifluoropropyl)amino]imidazo[1,2-a]pyridin-3-yl}-2-methylbenzamide]"
19,9.00,"COc1ccc(Oc2cc(NCCC(F)(F)F)c3ncc(-c4ccc(C(=O)NC5CC5)c(C)c4)n3c2)c(F)c1 [Example 69, N-cyclopropyl-4-{6-(2-fluoro-4-methoxyphenoxy)-8-[(3,3,3-trifluoropropyl)amino]imidazo[1,2-a]pyridin-3-yl}-2-methylbenzamide]"
20,8.24,"Cc1cc(-c2cnc3c(NCCC(F)(F)F)cc(Oc4ccccc4)cn23)ccc1C(=O)NC1(C)CC1 [Example 58, 2-Methyl-N-(1-methylcyclopropyl)-4-{6-phenoxy-8-[(3,3,3-trifluoropropyl)amino]imidazo[1,2-a]pyridin-3-yl}benzamide]"
21,8.21,"COc1ccc(Oc2cc(NCC(F)F)c3ncc(-c4ccc(C(=O)NC5CC5)c(C)c4)n3c2)cc1F [Example 167, N-cyclopropyl-4-{8-[(2,2-difluoroethyl)amino]-6-(3-fluoro-4-methoxyphenoxy)imidazo[1,2-a]pyridin-3-yl}-2-methylbenzamide]"
22,9.52,"Cc1cc(-c2cnc3c(NCCC(F)(F)F)cc(-c4ccncc4)cn23)ccc1C(=O)NC1CC1 [Example 2-2, N-cyclopropyl-2-methyl-4-{6-(pyridin-4-yl)-8-[(3,3,3-trifluoropropyl)amino]imidazo [1,2-a]pyridin-3-yl} benzamide]"
23,9.10,"COc1ccc(Oc2cc(NCC3CCOCC3)c3ncc(-c4ccc(C(=O)NC5CC5)c(C)c4)n3c2)cc1F [Example 123, N-cyclopropyl-4-{6-(3-fluoro-4-methoxyphenoxy)-8-[(tetrahydro-2H-pyran-4-ylmethyl)amino]imidazo[1,2-a]pyridin-3-yl}-2-methylbenzamide]"
24,7.22,"Cc1ccc(F)cc1Oc1cc(NCCC(F)(F)F)c2ncc(-c3ccc(C(=O)NC4(C#N)CCC4)c(C)c3)n2c1 [Example 63, N-(1-cyanocyclobutyl)-4-{6-(5-fluoro-2-methylphenoxy)-8-[(3,3,3-trifluoropropyl)amino]imidazor-1,2-aliwridin-3-yl}-2-methylbenzamide]"
25,7.86,"Cc1ccc(F)cc1Oc1cc(NCC(F)F)c2ncc(-c3ccc(C(=O)NC4CC4)c(C)c3)n2c1 [Example 164, N-cyclopropyl-4-{8-[(2,2-difluoroethyl)amino]-6-(5-fluoro-2-methylphenoxy)imidazo[1,2-a]pyridin-3-yl}-2-methylbenzamide]"
26,9.15,"Cc1cc(-c2cnc3c(NCCC(F)(F)F)cc(Oc4ccccc4)cn23)ccc1C(=O)NC1CC1 [Example 33, N-cyclopropyl-2-methyl-4-{6-phenoxy-8-[(3,3,3-trifluoropropyl)amino]imidazo[1,2-a]pyridin-3-yl}benzamide]"
